Measurements reported in patent US9884849B2, “Fluorinated benzofuranyl-pyrimidine derivatives containing a sulfoximine group” (Bayer Pharma Aktiengesellschaft, priority 2014, dated 2018).

Experiments:
[1] = target: T1, CDK9/CycT1 (Homo sapiens, UniProt P50750); assay: CDK9/CycT1 kinase assay (Method 1a, TR-FRET); type: biochemical; conditions: 10 μM ATP; for Selectivity CDK9 over CDK2: IC50 (CDK2)/IC50 (CDK9): Methods 1a. and 2a.
T1 construct: Recombinant full-length His-tagged human CDK9 and CycT1; His; purchased Invitrogen PV4131; host or cells: insect cells
T1 sequence (P50750 whole entry): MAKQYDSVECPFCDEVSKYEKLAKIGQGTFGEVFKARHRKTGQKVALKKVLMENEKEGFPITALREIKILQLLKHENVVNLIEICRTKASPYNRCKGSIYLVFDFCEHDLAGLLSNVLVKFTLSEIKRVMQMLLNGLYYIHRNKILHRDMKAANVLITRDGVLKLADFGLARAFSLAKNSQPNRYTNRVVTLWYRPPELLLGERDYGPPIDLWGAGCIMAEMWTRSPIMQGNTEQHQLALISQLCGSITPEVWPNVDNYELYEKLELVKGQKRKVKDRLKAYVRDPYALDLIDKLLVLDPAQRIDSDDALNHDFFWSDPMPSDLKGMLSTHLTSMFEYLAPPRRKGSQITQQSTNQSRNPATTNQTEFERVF
T1 sequence (O60563 whole entry partner): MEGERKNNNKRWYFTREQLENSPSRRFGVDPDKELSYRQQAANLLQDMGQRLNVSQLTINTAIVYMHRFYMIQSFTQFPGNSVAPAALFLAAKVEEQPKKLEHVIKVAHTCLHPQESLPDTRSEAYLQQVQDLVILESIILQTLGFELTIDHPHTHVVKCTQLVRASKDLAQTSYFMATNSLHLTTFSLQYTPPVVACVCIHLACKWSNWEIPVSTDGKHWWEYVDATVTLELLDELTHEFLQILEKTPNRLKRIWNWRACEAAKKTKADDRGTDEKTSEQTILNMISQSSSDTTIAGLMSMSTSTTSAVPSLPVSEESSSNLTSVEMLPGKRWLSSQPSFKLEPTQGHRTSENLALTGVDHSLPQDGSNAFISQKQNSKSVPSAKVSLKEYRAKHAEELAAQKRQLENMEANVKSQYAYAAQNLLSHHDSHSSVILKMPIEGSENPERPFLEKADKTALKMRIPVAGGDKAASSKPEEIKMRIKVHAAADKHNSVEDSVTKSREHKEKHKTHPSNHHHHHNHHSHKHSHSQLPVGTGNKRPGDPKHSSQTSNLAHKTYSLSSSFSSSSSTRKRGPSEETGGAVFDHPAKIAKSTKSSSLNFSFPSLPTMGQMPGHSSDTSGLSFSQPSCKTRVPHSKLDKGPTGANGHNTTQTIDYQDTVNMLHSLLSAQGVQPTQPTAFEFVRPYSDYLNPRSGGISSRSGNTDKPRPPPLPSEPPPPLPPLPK
Excerpt: 1a. CDK9/CycT1 Kinase Assay:
CDK9/CycT1-Inhibitory Activity of Compounds of the Present Invention was Quantified Employing the CDK9/CycT1 TR-FRET Assay as Described in the Following Paragraphs:
(§1) Recombinant full-length His-tagged human CDK9 and CycT1, expressed in insect cells and purified by Ni-NTA affinity chromatography, were purchased from Invitrogen (Cat. No PV4131). As substrate for the kinase reaction biotinylated peptide biotin-Ttds-YISPLKSPYKISEG (C-terminus in amid form) was used which can be purchased e.g. form the company JERINI Peptide Technologies (Berlin, Germany). For the assay 50 nl of a 100 fold concentrated solution of the test compound in DMSO was pipetted into a black low volume 384 well microtiter plate (Greiner Bio-One, Frickenhausen, Germany), 2 μl of a solution of CDK9/CycT1 in aqueous assay buffer [50 mM Tris/HCl pH 8.0, 10 mM MgCl2, 1.0 mM dithiothreitol, 0.1 mM sodium ortho-vanadate, 0.01% (v/v) Nonidet-P40 (Sigma)] were added and the mixture was incubated for 15 min at 22° C. to allow pre-binding of the test compounds to the enzyme before the start of the kinase reaction. Then the kinase reaction was started by the addition of 3 μl of a solution of adenosine-tri-phosphate (ATP, 16.7 μM=>final conc. in the 5 μl assay volume is 10 μM) and substrate (1.67 μM=>final conc. in the 5 μl assay volume is 1 μM) in assay buffer and the resulting mixture was incubated for a reaction time of 25 min at 22° C. The concentration of CDK9/CycT1 was adjusted depending of the activity of the enzyme lot and was chosen appropriate to have the assay in the linear range, typical concentrations were in the range of 1 μg/mL. The reaction was stopped by the addition of 5 μl of a solution of TR-FRET detection reagents (0.2 μM streptavidine-XL665 [Cisbio Bioassays, Codolet, France] and 1 nM anti-RB(pSer807/pSer811)-antibody from BD Pharmingen [#558389] and 1.2 nM LANCE EU-W1024 labeled anti-mouse IgG antibody [Perkin-Elmer, product no. AD0077]) in an aqueous EDTA-solution (100 mM EDTA, 0.2% (w/v) bovine serum albumin in 100 mM HEPES/NaOH pH 7.0).
(§2) The resulting mixture was incubated 1 h at 22° C. to allow the formation of complex between the phosphorylated biotinylated peptide and the detection reagents. Subsequently the amount of phosphorylated substrate was evaluated by measurement of the resonance energy transfer from the Eu-chelate to the streptavidine-XL. Therefore, the fluorescence emissions at 620 nm and 665 nm after excitation at 350 nm was measured in a HTRF reader, e.g. a Rubystar (BMG Labtechnologies, Offenburg, Germany) or a Viewlux (Perkin-Elmer). The ratio of the emissions at 665 nm and at […] was taken as the measure for the amount of phosphorylated substrate. The data were normalised (enzyme reaction without inhibitor=0% inhibition, all other assay components but no enzyme=100% inhibition).

[2] = target: T1, CDK9/CycT1; assay: CDK9/CycT1 high ATP kinase assay (Method 1b, TR-FRET); type: biochemical; conditions: 2 mM ATP; for Selectivity high ATP CDK9 over high ATP CDK2: IC50 (high ATP CDK2)/IC50 (high ATP CDK9): Methods 1b. and 2b.
Procedure: 1b. CDK9/CycT1 High ATP Kinase Assay
CDK9/CycT1-Inhibitory Activity of Compounds of the Present Invention at a High ATP Concentration after Preincubation of Enzyme and Test Compounds was Quantified Employing the CDK9/CycT1 TR-FRET Assay as Described in the Following Paragraphs.
as §1, with “were purchase” for “were purchased”, “JERINI peptide technologies” for “JERINI Peptide Technologies”, “(ATP, 3.3 mM=>final” for “(ATP, 16.7 μM=>final”, “is 2 mM)” for “is 10 μM)”, “of 0.5” for “of 1”
as §2

[3] = system: MOLM-13 cells; assay: Proliferation assay MOLM-13 (Method 3); type: cell-based, human; conditions: Homo sapiens, MOLM-13, 72 h, MOLM-13, 72-hour exposure, Cell Titre-Glo; read-out: Inhibition of MOLM-13 cell proliferation IC50
Procedure: Non-adherent MOLM-13 human acute myeloid leukemia cells (DSMZ ACC 554) were seeded at a density of 5,000 cells/well in a 96-well multititer plate in 100 μL of growth medium supplemented 10% fetal calf serum. After 24 hours, cell viability of one plate (zero-point plate) was determined with the Cell Titre-Glo Luminescent Cell Viability Assay (Promega), while 50 μL of test compound containing medium was added to the wells of the other plates (final concentrations in the range of 0.001-10 μM and DMSO controls; the final concentration of the solvent dimethyl sulfoxide was 0.5%). Cell viability was assessed after 72-hour exposure with the Cell Titre-Glo Luminescent Cell Viability Assay (Promega). IC50 values (inhibitory concentration at 50% of maximal effect) were determined by means of a 4 parameter fit on measurement data which were normalized to vehicle (DMSO) treated cells (=100%) and measurement readings taken immediately before compound exposure (=0%).

| IC50 [1] | Selectivity CDK9 over CDK2: IC50 (CDK2)/IC50 (CDK9) [1] | IC50 [2] | Selectivity high ATP CDK9 over high ATP CDK2: IC50 (high ATP CDK2)/IC50 (high ATP CDK9) [2] | IC50 [3] | SMILES |
| --- | --- | --- | --- | --- | --- |
| – | – | 0.88 nM | 1364 | – | Cc1cc(CS(C)(=O)=NC#N)cc(Nc2ncc(F)c(-c3ccc(F)c4ccoc34)n2)c1 (racemic) [Example 13, (rac)-[(3-{[5-Fluoro-4-(4-fluoro-1-benzofuran-7-yl)pyrimidin-2-yl]amino}-5-methylbenzyl)-(methyl)oxido-λ^6-sulfanylidene]cyanamide] |
| 4.9 nM | 16 | 6.4 nM | 77 | 33 nM | Cc1cc(CS(C)(=N)=O)cc(Nc2ncc(F)c(-c3ccc(F)c4ccoc34)n2)c1 (racemic) [Example 16, (rac)-5-Fluoro-4-(4-fluoro-1-benzofuran-7-yl)-N-{3-methyl-5-[(S-methylsulfonimidoyl)-methyl]phenyl}pyrimidin-2-amine] |
| – | – | 3.7 nM | 247 | – | CS(=N)(=O)Cc1cc(F)cc(Nc2ncc(F)c(-c3ccc(F)c4ccoc34)n2)c1 (single isomer, unassigned) [Example 11, 5-Fluoro-4-(4-fluoro-1-benzofuran-7-yl)-N-{3-fluoro-5-[(S-methylsulfonimidoyl)-methyl]-phenyl}-pyrimidin-2-amine] |
| 3.1 nM | 15 | 0.99 nM | 1263 | – | CS(=N)(=O)Cc1cc(F)cc(Nc2ncc(F)c(-c3ccc(F)c4ccoc34)n2)c1 (single isomer, unassigned) [Example 12, 5-Fluoro-4-(4-fluoro-1-benzofuran-7-yl)-N-{3-fluoro-5-[(S-methylsulfonimidoyl)-methyl]-phenyl}-pyrimidin-2-amine] |

Second part, the compound before the results:

| SMILES | IC50 [1] | Selectivity CDK9 over CDK2: IC50 (CDK2)/IC50 (CDK9) [1] | IC50 [2] | Selectivity high ATP CDK9 over high ATP CDK2: IC50 (high ATP CDK2)/IC50 (high ATP CDK9) [2] | IC50 [3] |
| --- | --- | --- | --- | --- | --- |
| CS(=O)(Cc1cccc(Nc2ncc(F)c(-c3ccc(F)c4ccoc34)n2)c1)=NC#N (racemic) [Example 1, (rac)-[(3-{[5-Fluoro-4-(4-fluoro-1-benzofuran-7-yl)pyrimidin-2-yl]amino}benzyl)(methyl)oxido-λ^6-sulfanylidene]cyanamide] | 2.3 nM | 32 | 0.9 nM | 622 | 83 nM |
| CS(=N)(=O)Cc1cccc(Nc2ncc(F)c(-c3ccc(F)c4ccoc34)n2)c1 (racemic) [Example 4, (rac)-5-Fluoro-4-(4-fluoro-1-benzofuran-7-yl)-N-{3-[(S-methylsulfonimidoyl)-methyl]phenyl}-pyrimidin-2-amine] | 4.6 nM | 24 | 22 nM | 23 | 108 nM |
| CS(=O)(Cc1cc(F)cc(Nc2ncc(F)c(-c3ccc(F)c4ccoc34)n2)c1)=NC#N (racemic) [Example 7, (rac)-[(3-Fluoro-5-{[5-fluoro-4-(4-fluoro-1-benzofuran-7-yl)pyrimidin-2-yl]amino}benzyl)(methyl)-oxido-λ^6-sulfanylidene]cyanamide] | 4.1 nM | 14 | 1.9 nM | 343 | 17 nM |
| CS(=N)(=O)Cc1cc(F)cc(Nc2ncc(F)c(-c3ccc(F)c4ccoc34)n2)c1 (racemic) [Example 10, (rac)-5-Fluoro-4-(4-fluoro-1-benzofuran-7-yl)-N-{3-fluoro-5-[(S-methylsulfonimidoyl)-methyl]-phenyl}-pyrimidin-2-amine] | 3.1 nM | 16 | 3.2 nM | 563 | 37 nM |
